In patent US20210032257A1, “(E)-1-(4-(DIMETHYLAMINO)BUT-2-ENOYL)PYRROLIDIN-3-YL 4-((3-ISOPROPYL-5-METHYLPYRAZOLO[1,5-A]PYRIMIDIN-7-YL)AMINO)PIPERIDINE-1-CARBOXYLATE FOR INHIBITING CDK7” (Eli Lilly and Company, priority 2017, published 2021):

How the values were obtained:
Assay in all cases: Biomarker study proliferation (CellTiter-Glo)
Assay type in all cases: cell-based
[1] = system: HLF
Description: (§1) Cancer cell lines are profiled to evaluate the anti-proliferative activity of a test compound in-vitro. Mutation, copy number and gene expression information of ARID1A, KMT2C, KMT2D and/or RB1 genes across cancer cell lines is obtained from COSMIC database (cancer.sanger.ac.uk) and cBioportal (http://www.cbioportal.org/). Cells are cultured in growth medium and plated into a 96-well plate in 100 μL/well growth medium at 5000 cells/well then incubated at 37° C., 5% CO2 overnight. Cells are cultured using supplier recommended media and conditions well known in the art, for example with RPMI 1640 with or without HEPES & L-Glutamine (Thermo SH30255.01) and 1 mM Sodium Pyruvate, and 10% FBS(Gibco cat #10082). The 1000× intermediate dilution plate is prepared by making a 10 mM working solution of a test sample in DMSO and performing 1:3 dilutions in DMSO for 10 points. The 10× dosing plate is prepared by adding 2 μL from the 1000× intermediate dilution plate to 198 μL of OPTIMEM®+10% FBS and mixing well. The cell plate is then treated by adding 11 μL from the 10× dosing plate into the 100 μL/well cell plate for a 1× final concentration. Staurosporine is used as a maximum growth inhibition control at a final concentration of 5 μM. The cell plate is incubated for 7 days at 37° C., 5% CO2. Seven days after treatment, Cell Titer-Glo® (Promega cat #G7571) assay buffer and substrate are removed from −20° C. and allowed to equilibrate to RT. Assay buffer is added to the substrate and swirled gently to mix. The CELL TITER-GLO® reagent (100 μL/well) is added to the cell plate and incubated at RT for 15 minutes. After 15 minutes, luminescence is read using a plate reader. Data is analyzed in Excel and graphed in GraphPad Prism. Statistical analysis and p value is calculated using Mann-Whitney nonparameteric t tests using GraphPad Prism.
(§2) Anti-proliferative effects of a test compound are categorized as insensitive (IC50≥1 μM), cytostatic (IC50<1 μM and % inhibition <70%) or cytotoxic (IC50<1 μM and % inhibition ≥70%).

[2] = system: SiHa
Description: as §1, §2

[3] = system: NCIH226
Description: as §1, §2

[4] = system: HCC1187
Description: as §1, §2

[5] = system: MKN7
Description: as §1, §2

[6] = system: SW1271
Description: as §1, §2

[7] = system: NCIH524
Description: as §1, §2

[8] = system: TCCSUP
Description: as §1, §2

[9] = system: SNU308
Description: as §1, §2

[10] = system: MDAMB453
Description: as §1, §2

[11] = system: NCIH441
Description: as §1, §2

[12] = system: SW480
Description: as §1, §2

[13] = system: NCIH2196
Description: as §1, §2

[14] = system: MHCC97H
Description: as §1, §2

[15] = system: A375
Description: as §1, §2

[16] = system: HCT116
Description: as §1, §2

[17] = system: MDAMB231
Description: as §1, §2

[18] = system: T84
Description: as §1, §2

[19] = system: KURAMOCHI
Description: as §1, §2

[20] = 168 h, read-out: Anti-proliferation effect IC50
[21] = Homo sapiens, 168 h, read-out: Anti-proliferation effect IC50

Cc1cc(NC2CCN(C(=O)O[C@H]3CCN(C(=O)/C=C/CN(C)C)C3)CC2)n2ncc(C(C)C)c2n1 [Example 1, [(3S)-1-[(E)-4-(dimethylamino)but-2-enoyl]pyrrolidin-3-yl] 4-[(3-isopropyl-5-methyl-pyrazolo[1,5-a]pyrimidin-7-yl)amino]piperidine-1-carboxylate]
IC50 [1, 20]: 17 nM
Anti-proliferation effect % Inh. ([1]; LIVER, 7 days): 100%
Anti-proliferation effect Outcome ([1]; LIVER, 7 days): Cytotoxic (cytotoxic (IC50<1 μM and % inhibition ≥70%))
Anti-proliferation effect % Inh. ([2]; CERVIX, 7 days): 58%
Anti-proliferation effect Outcome ([2]; ENDOMETRIUM, 7 days): Cytostatic (cytostatic (IC50<1 μM and % inhibition <70%))
IC50 [2, 21]: 105 nM
IC50 ([3]; Homo sapiens, NCI-H226, 168 h, read-out: Anti-proliferation effect IC50): 1200 nM
Anti-proliferation effect % Inh. ([3]; NCIH226, LUNG, 7 days): 43%
Anti-proliferation effect Outcome ([3]; NCIH226, LUNG, 7 days): Insensitive (insensitive (IC50≥1 μM))
Anti-proliferation effect % Inh. ([4]; HCC1187, BREAST, 7 days): 73%
Anti-proliferation effect Outcome ([4]; HCC1187, BREAST, 7 days): Cytotoxic (cytotoxic (IC50<1 μM and % inhibition ≥70%))
IC50 ([4]; Homo sapiens, HCC1187, 168 h, read-out: Anti-proliferation effect IC50): 27 nM
IC50 ([5]; Homo sapiens, MKN-7, 168 h, read-out: Anti-proliferation effect IC50): > 10000 nM
Anti-proliferation effect % Inh. ([5]; MKN7, STOMACH, 7 days): 39%
Anti-proliferation effect Outcome ([5]; MKN7, STOMACH, 7 days): Insensitive (insensitive (IC50≥1 μM))
IC50 ([6]; SW1271, 168 h, read-out: Anti-proliferation effect IC50): 24 nM
Anti-proliferation effect % Inh. ([6]; SW1271, LUNG, 7 days): 67%
Anti-proliferation effect Outcome ([6]; SW1271, LUNG, 7 days): Cytostatic (cytostatic (IC50<1 μM and % inhibition <70%))
IC50 ([7]; Homo sapiens, NCI-H524, 168 h, read-out: Anti-proliferation effect IC50): 37 nM
Anti-proliferation effect % Inh. ([7]; NCIH524, LUNG, 7 days): 92%
Anti-proliferation effect Outcome ([7]; NCIH524, LUNG, 7 days): Cytotoxic (cytotoxic (IC50<1 μM and % inhibition ≥70%))
IC50 ([8]; Homo sapiens, TCC-SUP, 168 h, read-out: Anti-proliferation effect IC50): 40 nM
Anti-proliferation effect % Inh. ([8]; TCCSUP, URINARY, 7 days): 61%
Anti-proliferation effect Outcome ([8]; TCCSUP, URINARY, 7 days): Cytostatic (cytostatic (IC50<1 μM and % inhibition <70%))
IC50 [9, 20]: 184 nM
Anti-proliferation effect % Inh. ([9]; SNU308, BILIARY, 7 days): 61%
Anti-proliferation effect Outcome ([9]; SNU308, BILIARY, 7 days): Cytostatic (cytostatic (IC50<1 μM and % inhibition <70%))
IC50 ([10]; Homo sapiens, MDA-MB-453, 168 h, read-out: Anti-proliferation effect IC50): 39 nM
Anti-proliferation effect % Inh. ([10]; MDAMB453, BREAST, 7 days): 56%
Anti-proliferation effect Outcome ([10]; MDAMB453, BREAST, 7 days): Cytostatic (cytostatic (IC50<1 μM and % inhibition <70%))
IC50 ([11]; Homo sapiens, NCI-H441, 168 h, read-out: Anti-proliferation effect IC50): 14 nM
Anti-proliferation effect % Inh. ([11]; NCIH441, LUNG, 7 days): 84%
Anti-proliferation effect Outcome ([11]; NCIH441, LUNG, 7 days): Cytotoxic (cytotoxic (IC50<1 μM and % inhibition ≥70%))
IC50 ([12]; Homo sapiens, SW480, 168 h, read-out: Anti-proliferation effect IC50): 36 nM
Anti-proliferation effect % Inh. ([12]; SW480, INTESTINE, 7 days): 90%
Anti-proliferation effect Outcome ([12]; SW480, INTESTINE, 7 days): Cytotoxic (cytotoxic (IC50<1 μM and % inhibition ≥70%))
IC50 ([13]; Homo sapiens, NCI-H2196, 168 h, read-out: Anti-proliferation effect IC50): 123 nM
Anti-proliferation effect % Inh. ([13]; NCIH2196, LUNG, 7 days): 63%
Anti-proliferation effect Outcome ([13]; NCIH2196, LUNG, 7 days): Cytostatic (cytostatic (IC50<1 μM and % inhibition <70%))
IC50 [14, 21]: 243 nM
Anti-proliferation effect % Inh. ([14]; LIVER, 7 days): 59%
Anti-proliferation effect Outcome ([14]; LIVER, 7 days): Cytostatic (cytostatic (IC50<1 μM and % inhibition <70%))
Anti-proliferation effect % Inh. ([15]; A375, SKIN, 7 days): 86%
Anti-proliferation effect Outcome ([15]; A375, SKIN, 7 days): Cytotoxic (cytotoxic (IC50<1 μM and % inhibition ≥70%))
IC50 ([15]; Homo sapiens, A-375, 168 h, read-out: Anti-proliferation effect IC50): 55 nM
Anti-proliferation effect % Inh. ([16]; HCT116, INTESTINE, 7 days): 88%
Anti-proliferation effect Outcome ([16]; HCT116, INTESTINE, 7 days): Cytotoxic (cytotoxic (IC50<1 μM and % inhibition ≥70%))
IC50 ([16]; Homo sapiens, HCT-116, 168 h, read-out: Anti-proliferation effect IC50): 41 nM
IC50 ([17]; Homo sapiens, MDA-MB-231, 168 h, read-out: Anti-proliferation effect IC50): 2820 nM
Anti-proliferation effect % Inh. ([17]; MDAMB231, BREAST, 7 days): 23%
Anti-proliferation effect Outcome ([17]; MDAMB231, BREAST, 7 days): Insensitive (insensitive (IC50≥1 μM))
IC50 ([18]; Homo sapiens, T84, 168 h, read-out: Anti-proliferation effect IC50): 308 nM
Anti-proliferation effect % Inh. ([18]; T84, INTESTINE, 7 days): 61%
Anti-proliferation effect Outcome ([18]; T84, INTESTINE, 7 days): Cytostatic (cytostatic (IC50<1 μM and % inhibition <70%))
IC50 [19, 20]: 52 nM
Anti-proliferation effect % Inh. ([19]; KURAMOCHI, OVARY, 7 days): 88%
Anti-proliferation effect Outcome ([19]; KURAMOCHI, OVARY, 7 days): Cytotoxic (cytotoxic (IC50<1 μM and % inhibition ≥70%))
